Assay results reported in patent publication US6107308A, “Piperidine derivatives” (Kowa Co., Ltd., priority 1997, dated 2000).
Where a name gives a salt, the structure may show the parent alone.

How the values were obtained:
[1] = target: histamine-induced contraction of guinea pig ileum (Cavia porcellus, UniProt P31389); test: Antihistaminic action (in vitro test), isotonic contraction of isolated ileum in response to histamine; details: histamine 10^-8 to 10^-4 M, 30 min after addition of test compound; for Kb: read-out: Anti-histaminic action pA2 (converted)
Description: (§1) Antihistaminic action and antileukotriene action (in vitro test):
(§2) A guinea pig was subjected to ileectomy, and the ileum was cut to have a length of about 2 cm. Each piece of ileum was suspended in a Tyrode's buffer placed in a 20-ml organ bath. Isotonic contraction in response to histamine or leukotriene D4 was recorded by use of a recording apparatus. The Tyrode's buffer was aerated with a gas mixture (95% O2 -5% CO2) while the temperature of the buffer was maintained at 30° C. Antihstaminic activity was tested by adding 10^-8 to 10^-4 M histamine to the organ bath and obtaining a dose-response curve. After washing with a buffer several times, a test compound was added to the organ bath. Thirty minutes later, another dose-response curve of histamine was obtained. For the test of antileukotriene activity, effects exerted by addition of a 10^-5 M test compound on the contraction included with 10^-8 M LTD4 was investigated.

[2] = system: leukotriene D4 (LTD4)-induced contraction of guinea pig ileum; test: Antileukotriene action (in vitro test), isotonic contraction of isolated ileum induced with LTD4; details: Cavia porcellus; test compound 10^-5 M, contraction with 10^-8 M LTD4; read-out: LTD4 action (inhibition exerted by a test compound at 10^-5 M)
Description: as §1, §2

[3] = system: leukotriene D4 (LTD4)-induced contraction of guinea pig ileum; test: as above; details: Cavia porcellus; contraction with 10^-8 M LTD4
H1 receptor [4] = target: H1 receptor (Cavia porcellus, UniProt P31389); test: biochemical; format: binding, guinea pig
Description: H1 receptor binding inhibitory test:
Reaction was stopped by addition of ice-cold phosphate buffer, and immediately thereafter, the reaction mixture was filtered by use of a Wattman CF/C filter. The filter was washed twice, each time with 20 ml ice-cold buffer. Radioactivity of the residue was measured by use of a liquid scintillation counter. From the value as obtained when a test compound was not added and values as obtained when the test compound was added at different concentrations, there was determined a dose-response curve representing suppression action of the test compound, from which a 50% inhibitory concentration (IC50) was obtained. Based on the IC50 value and by use of the Cheng-Prusoff equation, a dissociation constant (KD) was calculated (Table 4). In a saturation test, 10^-4 M R(-)-dimethindene was used for the measurement of the amount of non-specific binding.

LTD4 Receptor = target: T1, LTD4 Receptor (Cavia porcellus, UniProt Q2NNR5); test: LTD4 Receptor binding inhibitory test ([^3 H] leukotriene D4); set-up: species or system guinea pig
T1 construct: guinea pig lung protein; from tissue; host or cells: guinea pig lung
T1 sequence (Q2NNR5 1-340): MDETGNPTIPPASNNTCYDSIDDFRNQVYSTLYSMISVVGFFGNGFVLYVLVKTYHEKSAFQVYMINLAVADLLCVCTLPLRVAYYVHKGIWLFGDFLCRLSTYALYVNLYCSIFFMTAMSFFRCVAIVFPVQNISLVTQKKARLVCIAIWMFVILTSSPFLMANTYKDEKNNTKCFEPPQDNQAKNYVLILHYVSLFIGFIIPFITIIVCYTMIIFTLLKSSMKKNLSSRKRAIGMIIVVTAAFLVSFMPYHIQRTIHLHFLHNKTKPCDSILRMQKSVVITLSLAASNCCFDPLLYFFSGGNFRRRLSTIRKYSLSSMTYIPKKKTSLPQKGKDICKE
Description: LTD4 Receptor binding inhibitory test:
Reaction was stopped by addition of ice-cold Tris-HCl/NaCl (10 mM/100 mM, pH 7.5) buffer, and immediately thereafter, the reaction mixture was filtered by use of a Wattman CF/C filter. The filter was washed twice, each time with 20 ml ice-cold buffer. Radioactivity of the residue was measured by use of a liquid scintillation counter. […] In a saturation test, 2 μM leukotriene D4 was used for the measurement of the amount of non-specific binding.

H1 receptor [5] = target: T2, H1 receptor (Mus musculus, UniProt P70174); test: Test on migration into the brain (ex vivo [^3 H]mepyramine binding in mouse brain after intraperitoneal administration); set-up: species or system mice; details: ip
T2 construct: from tissue; host or cells: mouse brain homogenate after intraperitoneal dosing
Description: Test on migration into the brain:
The test was performed in accordance with a method described by Zang. […] Briefly, several mice each weighing 20-23 g were provided, and to each mouse was intraperitoneally administered a test sample having a predetermined concentration. One hour later, each mouse was sacrificed and its brain was removed. The brain tissue was mixed with 30 mM Na, K phosphate buffer (pH 7.5) so as to attain a concentration of 40 ml/g wet weight, and the mixture was homogenized. […] The mixture was incubated at 37° C. for 50 minutes. Subsequently, reaction was stopped by addition of ice-cold phosphate buffer, and immediately thereafter, the reaction mixture was filtered by use of a Wattman CF/C filter. The filter was washed twice, each time with 20 ml ice-cold buffer. Radioactivity of the residue was measured by use of a liquid scintillation counter. […] The cerebral migration index, BPindex, was calculated from the following equation.
BPindex=IC50 (mg/kg)/dissociation constant for H1 recepters (nM)

H1 receptor (Cavia porcellus, UniProt P31389), sequence (P31389 whole entry): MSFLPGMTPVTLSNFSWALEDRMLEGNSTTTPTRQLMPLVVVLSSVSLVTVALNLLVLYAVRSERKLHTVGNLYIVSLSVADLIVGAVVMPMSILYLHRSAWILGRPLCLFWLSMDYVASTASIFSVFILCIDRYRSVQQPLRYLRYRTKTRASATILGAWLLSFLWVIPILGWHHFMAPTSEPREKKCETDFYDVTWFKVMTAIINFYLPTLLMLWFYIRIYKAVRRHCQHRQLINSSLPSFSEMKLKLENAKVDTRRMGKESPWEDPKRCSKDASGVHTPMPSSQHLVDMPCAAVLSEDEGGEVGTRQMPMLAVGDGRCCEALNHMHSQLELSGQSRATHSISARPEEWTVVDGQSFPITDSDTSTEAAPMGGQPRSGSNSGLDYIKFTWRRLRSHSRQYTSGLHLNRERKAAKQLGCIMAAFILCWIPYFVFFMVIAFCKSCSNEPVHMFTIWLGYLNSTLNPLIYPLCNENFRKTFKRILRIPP
histamine-induced contraction of guinea pig ileum, sequence (P31389 whole entry): as above
T2 sequence (P70174 whole entry): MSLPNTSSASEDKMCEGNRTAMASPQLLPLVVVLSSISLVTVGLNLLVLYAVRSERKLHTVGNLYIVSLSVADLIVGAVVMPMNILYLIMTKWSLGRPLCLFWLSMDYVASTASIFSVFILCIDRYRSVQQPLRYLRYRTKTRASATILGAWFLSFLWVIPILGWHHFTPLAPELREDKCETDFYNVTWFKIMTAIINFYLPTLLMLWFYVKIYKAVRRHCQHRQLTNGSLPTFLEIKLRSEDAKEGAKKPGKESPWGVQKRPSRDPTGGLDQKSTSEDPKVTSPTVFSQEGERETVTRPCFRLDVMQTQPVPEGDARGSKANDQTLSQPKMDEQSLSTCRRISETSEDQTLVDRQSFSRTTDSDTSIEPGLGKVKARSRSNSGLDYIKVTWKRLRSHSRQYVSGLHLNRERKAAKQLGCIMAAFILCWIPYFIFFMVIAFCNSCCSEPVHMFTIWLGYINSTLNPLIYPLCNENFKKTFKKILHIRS

Row | SMILES | Anti-histaminic action pD'2 [1] | inhibition at 10 µM [2] | Kb [1] | IC50 [3] | Kd (H1 receptor [4]) | Kd (LTD4 Receptor) | selectivity ratio at 1 h (H1 receptor [5]; brain, BPindex = IC50 (mg/kg)/dissociation constant for H1 receptors (nM), read-out: cerebral migration index, BP index) | ED50 (H1 receptor [5]; 1 h, read-out: IC50 (ex vivo))
1 | O=C1CSc2cc(OCCCN3CCC(Cc4ccc5ccccc5n4)CC3)ccc2N1 [Example 16, 7-[3-[4-(2-Quinolylmethyl)piperidino]propoxy]-3,4-dihydro-2H-1,4-benzothiazin-3-one] | 8.01 | 15% |  |  |  |  |  | 
2 | O=C1CCc2ccc(OCCCN3CCC(=Cc4ccc5ccccc5n4)CC3)cc2N1 [Example 9, 7-[3-[4-(2-Quinolylmethylene)piperidino]propoxy]-1,2,3,4-tetrahydroquinolin-2-one oxalate] |  | 15% | 2.95 nM |  |  |  |  | 
3 | Cc1ccc(OCCN2CCC(Cc3ccc4ccccc4n3)CC2)c2ccc(=O)[nH]c12 [Example 25, 8-Methyl-5-[2-[4-(2-quinolylmethyl)-piperidino]ethoxy]carbostyryl] |  | 88% | 0.468 nM | 3400 nM |  |  |  | 
4 | Cc1ccc(OCCCN2CCC(Cc3ccc4ccccc4n3)CC2)c2c1NC(=O)C2(C)C [Example 15, 4-[3-[4-(2-quinolylmethyl)piperidino]-propoxy]-3,3,7-trimethyl-2,3-dihydro-1H-indol-2-one] |  | 19% | 0.324 nM |  | 3.1 nM | 8060 nM |  | 
5 | O=C1CCc2cc(OCCN3CCC(=Cc4ccc5ccccc5n4)CC3)ccc2N1 [Example 4, 6-[2-[4-(2-Quinolylmethylene)piperidino]ethoxy]-1,2,3,4-tetrahydroquinolin-2-one] |  |  |  |  | 164 nM | 12700 nM |  | 
6 | Cc1ccc(OCCN2CCC(=Cc3ccc4ccccc4n3)CC2)c2ccc(=O)[nH]c12 [Example 10, 8-Methyl-5-[2-[4-(2-quinolylmethylene)-piperidino]ethoxy]carbostyryl] |  | 61% | 0.0832 nM |  | 0.0351 nM | 9860 nM | 930 | 33 mg/kg
7 | Cc1ccc(OCCN2CCC(Cc3ccc4ccccc4n3)CC2)c2c1NC(=O)CC2 [Example 17, 8-Methyl-5-[2-[4-(2-quinolylmethyl)piperidino]ethoxy]-1,2,3,4-tetrahydroquinolin-2-one] |  | 23% | 0.166 nM |  |  |  |  | 
8 | Cc1ccc(OCCCN2CCC(=Cc3ccc4ccccc4n3)CC2)c2ccc(=O)[nH]c12 [Example 11, 8-Methyl-5-[3-[4-(2-quinolylmethylene)-piperidino]propoxy]carbostyryl] |  | 39% | 0.219 nM |  |  | 20000 nM |  | 
9 | O=C1CSc2cc(OCCCN3CCC(=Cc4ccc5ccccc5n4)CC3)ccc2N1 [Example 2, 7-[3-[4-(2-Quinolylmethylene)piperidino]propoxy]-3,4-dihydro-2H-1,4-benzothiazin-3-one] | 8.22 | 21% |  |  |  |  |  | 
10 | O=C1CCc2cccc(OCCCN3CCC(=Cc4ccc5ccccc5n4)CC3)c2N1 [Example 8, 8-[3-[4-(2-Quinolylmethylene)piperidino]propoxy]-1,2,3,4-tetrahydroquinolin-2-one oxalate] |  | 30% | 0.224 nM |  |  |  |  | 
11 | O=C1CCCc2cc(OCCCN3CCC(=Cc4ccc5ccccc5n4)CC3)ccc2N1 [Example 12, 7-[3-[4-(2-Quinolylmethylene)piperidino]propoxy]-2,3,4,5-tetrahydro-1H-benz[b]azepin-2-one oxalate] |  | 12% | 0.178 nM |  | 0.0238 nM | 15800 nM |  | 
12 | Cc1ccc(OCCCN2CCC(=Cc3ccc4ccccc4n3)CC2)c2c1NC(=O)CC2 [Example 3, 8-Methyl-5-[3-[4-(2-quinolylmethylene)piperidino]propoxy]-1,2,3,4-tetrahydroquinolin-2-one] |  | 77% | 0.141 nM |  |  | 55000 nM |  | 
13 | O=C1NCCCc2cc(OCCCN3CCC(=Cc4ccc5ccccc5n4)CC3)ccc21 [Example 13, 7-[3-[4-(2-Quinolylmethylene)piperidino]propoxy]-2,3,4,5-tetrahydro-1H-benz[c]azepin-1-one oxalate] |  | 39% | 0.174 nM |  | 1.15 nM | 19000 nM |  | 
14 | O=C1CCc2cc(OCCCN3CCC(=Cc4ccc5ccccc5n4)CC3)ccc2N1 [Example 5, 6-[3-[4-(2-Quinolylmethylene)piperidino]propoxy]-1,2,3,4-tetrahydroquinolin-2-one] |  |  |  |  | 0.0469 nM | 54400 nM |  | 
15 | Cc1ccc(OCCCN2CCC(Cc3ccc4ccccc4n3)CC2)c2ccc(=O)[nH]c12 [Example 26, 8-Methyl-5-[3-[4-(2-quinolylmethyl)-piperidino]propoxy]carbostyryl] |  | 29% | 0.162 nM |  |  |  |  | 
16 | C(=C1CCN(CCCOc2ccc3c(c2)CCCc2nnnn2-3)CC1)c1ccc2ccccc2n1 [Example 14, 8-[3-[4-(2-Quinolylmethylene)piperidino]propoxy]-5,6-dihydro-4H-tetrazolo[1,5-a]benz[b]azepine oxalate] |  | 40% | 0.0525 nM |  |  | 98900 nM |  | 
